The source of these data is US20260069571A1, “DDR1 AND DDR2 INHIBITORS FOR THE TREATEMENT OF CANCER AND FIBROTIC DISEASES” (REDX PHARMA PLC, priority 2021, published 2026).

Structures are written as SMILES.

Test [1] addresses Recombinant human DDR2 (Homo sapiens (Human), UniProt Q16832). In words: LanthaScreen Eu Kinase Binding Assay, DDR2. Particulars: DDR2 1.75 nM (aa427-855, GST tag), Kinase Tracer 178 10 nM; for IC50: read-out: DDR2 pIC50 (converted). How it is done: (§1) DDR1 and DDR2 Biochemical Assay Method
(§2) The capacity of compounds to bind to DDR1 and DDR2 was quantified using a LanthaScreen Eu Kinase Binding Assay. Recombinant human DDR1 (2.5 nM; aa440-876 containing a GST tag) and DDR2 (1.75 nM; aa427-855 containing a GST tag) were diluted in assay buffer (50 mM HEPES pH7.3, 10 mM MgCl2, 1 mM EGTA and 0.01% Tween) with various concentrations of compound in a 384-well plate and a volume of 5 uL. After a 30-minute incubation at room temperature, 2.5 uL of Eu-anti GST antibody (diluted to 1 nM in assay buffer) plus Kinase Tracer 178 (diluted in assay buffer to 5 nM for DDR1 and 10 nM for DDR2) were added to the plate. Following 60-minute incubation at room temperature, time-resolved fluorescence was measured on a BMG Labtech PHERAstar plate reader. DMSO (1%) and reference compound (1 μM) were used to generate the Max and Min assay signals, respectively. Data was analysed using a four-parameter logistic model to calculate IC50 values, with at least two independent replicates were performed for each compound.
In general terms: In TR-FRET formats the signal depends on donor and acceptor labels being close together.

For test [2], the target named is Recombinant human DDR1 (Homo sapiens (Human), UniProt Q08345). In words: LanthaScreen Eu Kinase Binding Assay, DDR1. The note with it: DDR1 2.5 nM (aa440-876, GST tag), Kinase Tracer 178 5 nM; for IC50: read-out: DDR1 pIC50 (converted). As to the method: as §1, §2
Chain of Recombinant human DDR1 (Q08345 other isoform, or with tags, fused parts or gaps): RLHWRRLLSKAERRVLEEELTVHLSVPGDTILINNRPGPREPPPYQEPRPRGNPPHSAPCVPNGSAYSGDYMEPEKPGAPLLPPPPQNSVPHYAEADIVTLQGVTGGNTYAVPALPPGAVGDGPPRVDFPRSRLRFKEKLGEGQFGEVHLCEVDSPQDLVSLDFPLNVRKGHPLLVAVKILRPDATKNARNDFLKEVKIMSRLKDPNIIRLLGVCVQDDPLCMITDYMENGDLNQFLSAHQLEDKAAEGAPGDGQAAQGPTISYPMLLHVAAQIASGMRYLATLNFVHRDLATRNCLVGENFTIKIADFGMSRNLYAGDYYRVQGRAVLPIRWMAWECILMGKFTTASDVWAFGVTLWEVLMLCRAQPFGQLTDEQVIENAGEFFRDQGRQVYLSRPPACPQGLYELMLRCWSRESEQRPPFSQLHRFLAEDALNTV

Chain of Recombinant human DDR2 (Q16832 427-855): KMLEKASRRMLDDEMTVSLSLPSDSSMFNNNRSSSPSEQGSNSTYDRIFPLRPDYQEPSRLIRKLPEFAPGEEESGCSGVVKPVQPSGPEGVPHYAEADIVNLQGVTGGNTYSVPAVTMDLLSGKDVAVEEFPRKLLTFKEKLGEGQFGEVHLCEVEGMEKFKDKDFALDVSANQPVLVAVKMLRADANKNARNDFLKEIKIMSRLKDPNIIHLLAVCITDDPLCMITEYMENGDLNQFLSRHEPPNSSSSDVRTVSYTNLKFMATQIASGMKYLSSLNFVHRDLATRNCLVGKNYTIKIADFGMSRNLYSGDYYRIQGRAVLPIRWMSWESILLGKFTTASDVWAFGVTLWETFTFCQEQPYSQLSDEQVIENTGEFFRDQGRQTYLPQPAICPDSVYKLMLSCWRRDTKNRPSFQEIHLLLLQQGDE

For the compound `CN(C)Cc1ccc(NC(=O)CN2Cc3cccc(Nc4ccc5c(cnn5C)c4)c3C2=O)cc1C(F)(F)F` [Example 13, N-[4-[(dimethylamino)methyl]-3-(trifluoromethyl)phenyl]-2-[7-[(1-methylindazol-5-yl)amino]-1-oxo-isoindolin-2-yl]acetamide], the IC50 in test [1] was 10 to 100 nM. The “DDR1 pIC50” value in test [2] is recorded as “A (pIC50>8)”.
Turning to `Cn1ncc2cc(Nc3cccc4c3C(=O)N(CC(=O)N3CCCC[C@H]3C(F)(F)F)C4)ccc21` [Example 14, 7-[(1-methylindazol-5-yl)amino]-2-[2-oxo-2-[(2S)-(trifluoromethyl)-1-piperidyl]ethyl]isoindolin-1-one], the IC50 in test [1] and in test [2] was less than 10 nM throughout.
`CC1c2cccc(Nc3ccc4c(cnn4C)c3)c2C(=O)N1CC(=O)NCC(F)(F)F` (centres unmarked) [Example 15, 2-[1-methyl-4-[(1-methylindazol-5-yl)amino]-3-oxo-isoindolin-2-yl]-N-(2,2,2-trifluoroethyl)acetamide]: the IC50 in test [1] and in test [2] was 10 to 100 nM throughout.
As for `Cn1ncc2cc(Nc3cccc4c3C(=O)N(CC(=O)N3CCC[C@H]3C(F)F)C4)ccc21` [Example 16, 2-[2-[(2S)-(difluoromethyl)pyrrolidin-1-yl]-2-oxo-ethyl]-7-[(1-methylindazol-5-yl)amino]isoindolin-1-one], the IC50 in test [1] and in test [2] was less than 10 nM each time.
Turning to `Cn1ncc2cc(Nc3cccc4c3C(=O)N(CC(=O)N3CC(C(F)(F)F)C3)C4)ccc21` [Example 18, 7-[(1-methylindazol-5-yl)amino]-2-[2-oxo-2-[3-(trifluoromethyl)73zetidine-1-yl]ethyl]isoindolin-1-one], the values for the IC50 in test [1] and in test [2] were 100 to 1000 nM and 10 to 100 nM, respectively.
Taken in the same sequence, the figures for `Cn1ncc2cc(Nc3cccc4c3C(=O)N(CC(=O)N3CC(F)(F)C3)C4)ccc21` [Example 19, 2-[2-(3,3-difluoroazetidin-1-yl)-2-oxo-ethyl]-7-[(1-methylindazol-5-yl)amino]isoindolin-1-one] were 100 to 1000 nM and 100 to 1000 nM.
As to `CN(C)Cc1cc(NC(=O)CN2Cc3cccc(Nc4ccc5c(cnn5C)c4)c3C2=O)cc(C(F)(F)F)c1` [Example 20, N-[3-[(dimethylamino)methyl]-5-(trifluoromethyl)phenyl]-2-[7-[(1-methylindazol-5-yl)amino]-1-oxo-isoindolin-2-yl]acetamide], in test [1], the IC50 was 10 to 100 nM. In addition, in test [2], the “DDR1 pIC50” value is reported as “A (pIC50>8)”.
Taken in the same sequence, the figures for `O=C(CN1Cc2cccc(Nc3ccc4[nH]ncc4c3)c2C1=O)NCC(F)(F)F` [Example 21, 2-[7-(1H-indazol-5-ylamino)-1-oxo-isoindolin-2-yl]-N-(2,2,2-trifluoroethyl)acetamide] were 10 to 100 nM and “A (pIC50>8)”.
Consider `O=C(CN1Cc2cccc(Nc3cnc4[nH]ncc4c3)c2C1=O)NCC(F)(F)F` [Example 22, 2-[1-oxo-7-(1H-pyrazolo[3,4-b]pyridin-5-ylamino)isoindolin-2-yl]-N-(2,2,2-trifluoroethyl)acetamide], for which the “DDR2 pIC50” value in test [1] is given as “D (pIC50≤6)”. Moreover, in test [2], the IC50 was 10 to 100 nM.
As for `Cn1ncc2cc(Nc3cccc4c3C(=O)N(CC(=O)Nc3cccc(C(C)(C)N)c3)C4)ccc21` [Example 23, N-[3-(1-amino-1-methyl-ethyl)phenyl]-2-[7-[(1-methylindazol-5-yl)amino]-1-oxo-isoindolin-2-yl]acetamide], the IC50 in test [1] and in test [2] was 10 to 100 nM in each case.
For `Cn1ncc2cc(Nc3cccc4c3C(=O)N(CC(=O)NC3CC3(F)F)C4)ccc21` (centres unmarked) [Example 24, N-(2,2-difluorocyclopropyl)-2-[7-[(1-methylindazol-5-yl)amino]-1-oxo-isoindolin-2-yl]acetamide], the IC50 in test [1] was 10 to 100 nM. Also, in test [2], the “DDR1 pIC50” value was “A (pIC50>8)”.
`Cn1ncc2cc(Nc3cccc4c3C(=O)N(CC(=O)N3CCOC(C(F)(F)F)C3)C4)ccc21` (centres unmarked) [Example 26, 7-[(1-methylindazol-5-yl)amino]-2-[2-oxo-2-[2-(trifluoromethyl)morpholin-4-yl]ethyl]isoindolin-1-one]: the IC50 in test [1] and in test [2] was 10 to 100 nM each time.
For `Cn1ncc2cc(Nc3cccc4c3C(=O)N(CC(=O)NCC(F)(F)F)C4)cc(Cl)c21` [Example 27, 2-[7-[(7-chloro-1-methyl-indazol-5-yl)amino]-1-oxo-isoindolin-2-yl]-N-(2,2,2-trifluoroethyl)acetamide], the “DDR2 pIC50” value in test [1] is reported as “A (pIC50>8)”. Besides, in test [2], the “DDR1 pIC50” value is recorded as “A (pIC50>8)”.
On to `Cc1n[nH]c2cc(Nc3cccc4c3C(=O)N(CC(=O)N[C@@H](C)C(F)(F)F)C4)ccc12` [Example 28, 2-[7-[(3-methyl-1H-indazol-6-yl)amino]-1-oxo-isoindolin-2-yl]-N-[(1S)-2,2,2-trifluoro-1-methyl-ethyl]acetamide], for which the “DDR2 pIC50” value in test [1] is “A (pIC50>8)”. The “DDR1 pIC50” value in test [2] was “A (pIC50>8)”.
Turning to `Cc1n[nH]c2cc(Nc3cccc4c3C(=O)N(CC(=O)N3CCC[C@H]3C(F)(F)F)C4)ccc12` [Example 29, 7-[(3-methyl-1H-indazol-6-yl)amino]-2-[2-oxo-2-[(2S)-(trifluoromethyl)77yrrolidine-1-yl]ethyl]isoindolin-1-one], the IC50 in test [1] and in test [2] was less than 10 nM in each case.
On to `Cc1n[nH]c2cc(Nc3cccc4c3C(=O)N(CC(=O)NCC(F)(F)F)C4)cnc12` [Example 30, 2-[7-[(3-methyl-1H-pyrazolo[4,3-b]pyridin-6-yl)amino]-1-oxo-isoindolin-2-yl]-N-(2,2,2-trifluoroethyl)acetamide], for which the IC50 in test [1] is 10 to 100 nM. For the same compound, the “DDR1 pIC50” value in test [2] was “A (pIC50>8)”.
For `Cn1ncc2cc(Nc3cccc4c3C(=O)N(CC(=O)N3CCOCC3C(F)(F)F)C4)ccc21` (centres unmarked) [Example 31, 7-[(1-methylindazol-5-yl)amino]-2-[2-oxo-2-[3-(trifluoromethyl)morpholin-4-yl]ethyl]isoindolin-1-one], in test [1], the IC50 was 10 to 100 nM. For the same compound, the “DDR1 pIC50” value in test [2] is “A (pIC50>8)”.
Turning to `Cc1n[nH]c2cc(Nc3cccc4c3C(=O)N(CC(=O)N3CCCC(C(F)(F)F)C3)C4)ccc12` (centres unmarked) [Example 32, 7-[(3-methyl-1H-indazol-6-yl)amino]-2-[2-oxo-2-[3-(trifluoromethyl)-1-piperidyl]ethyl]isoindolin-1-one], the “DDR2 pIC50” value in test [1] was “A (pIC50>8)”. In addition, in test [2], the “DDR1 pIC50” value is listed as “A (pIC50>8)”.
Consider `Cc1n[nH]c2cc(Nc3cccc4c3C(=O)N(CC(=O)N3CCC[C@H]3CF)C4)ccc12` [Example 33, 2-[2-[(2S)-(fluoromethyl)pyrrolidin-1-yl]-2-oxo-ethyl]-7-[(3-methyl-1H-indazol-6-yl)amino]isoindolin-1-one], for which the “DDR2 pIC50” value in test [1] is recorded as “A (pIC50>8)”. Moreover, the “DDR1 pIC50” value in test [2] was “A (pIC50>8)”.
`Cc1n[nH]c2cc(Nc3cccc4c3C(=O)N(CC(=O)N3CC(C(F)(F)F)C3)C4)ccc12` [Example 34, 7-[(3-methyl-1H-indazol-6-yl)amino]-2-[2-oxo-2-[3-(trifluoromethyl)azetidin-1-yl]ethyl]isoindolin-1-one]: the IC50 in test [1] and in test [2] was 10 to 100 nM throughout.
As to `Cc1n[nH]c2cc(Nc3cccc4c3C(=O)N(CC(=O)NC3CC3(F)F)C4)ccc12` (centres unmarked) [Example 36, N-(2,2-difluorocyclopropyl)-2-[7-[(3-methyl-1H-indazol-6-yl)amino]-1-oxo-isoindolin-2-yl]acetamide], in test [1], the “DDR2 pIC50” value is recorded as “A (pIC50>8)”. The “DDR1 pIC50” value in test [2] was “A (pIC50>8)”.
Take `Cc1n[nH]c2cc(Nc3cccc4c3C(=O)N(CC(=O)Nc3ccc(CN(C)C)c(C(F)(F)F)c3)C4)ccc12` [Example 37, N-[4-[(dimethylamino)methyl]-3-(trifluoromethyl)phenyl]-2-[7-[(3-methyl-1H-indazol-6-yl)amino]-1-oxo-isoindolin-2-yl]acetamide]: the IC50 in test [1] is 10 to 100 nM. Moreover, the “DDR1 pIC50” value in test [2] was “A (pIC50>8)”.
Taken in the same sequence, the figures for `Cc1n[nH]c2cc(Nc3cccc4c3C(=O)N(CC(=O)N3CCOC(C(F)(F)F)C3)C4)ccc12` (centres unmarked) [Example 38, 7-[(3-methyl-1H-indazol-6-yl)amino]-2-[2-oxo-2-[2-(trifluoromethyl)morpholin-4-yl]ethyl]isoindolin-1-one] were 10 to 100 nM and “A (pIC50>8)”.
In the same order, the values of `Cc1n[nH]c2cc(Nc3cccc4c3C(=O)N(CC(=O)Nc3cc(CN(C)C)cc(C(F)(F)F)c3)C4)ccc12` [Example 39, N-[3-[(dimethylamino)methyl]-5-(trifluoromethyl)phenyl]-2-[7-[(3-methyl-1H-indazol-6-yl)amino]-1-oxo-isoindolin-2-yl]acetamide] are 10 to 100 nM and “A (pIC50>8)”.
For the compound `Cc1n[nH]c2cc(Nc3cccc4c3C(=O)N(CC(=O)Nc3cnoc3)C4)ccc12` [Example 40, N-isoxazol-4-yl-2-[7-[(3-methyl-1H-indazol-6-yl)amino]-1-oxo-isoindolin-2-yl]acetamide], in test [1], the “DDR2 pIC50” value is given as “A (pIC50>8)”. The “DDR1 pIC50” value in test [2] was “A (pIC50>8)”.
